Data taken from patent US7438931B2, “Methods and compositions for the treatment of angiogenic diseases” (The Regents of The University of Michigan, priority 1998, dated 2008).
Where “and” joins values, the source holds several entries; their conditions need not be identical. Equal entries are not always repeated.

Tests used:
metastatic solid tumors = assay: Phase I trial: clinical and radiologic response of metastatic cancer; assay type: in vivo, human
Excerpt: Patients with effusions or bone marrow involvement as the only manifestations of disease, and those who had severe intercurrent illness requiring intensive management or were transfusion dependent, were excluded. […] Other requirements were demonstrable progression of disease in the previous 3 months, after standard treatments such as surgery, chemotherapy, radiotherapy, and/or immunotherapy, or progressive disease after declining conventional treatment modalities.
Six patients were to be enrolled at each dose level. After 4 patients were enrolled at level I, if one patient experienced dose-limiting toxicity (DLT) (defined as Hct<80% of baseline), 2 more patients were enrolled at level I. If no DLT was observed, patients were enrolled at the next dose level. Treatment was allowed to continue beyond induction of target copper deficiency, if the patients experienced a partial or complete clinical response or achieved clinical stable disease by the following definitions. Complete response is defined as the disappearance of all clinical and laboratory signs and symptoms of active disease. Partial response is defined as a 50% or greater reduction in the size of measurable lesions defined by the sum of the products of the longest perpendicular diameters of the lesions, with no new lesions or lesions increasing in size. Minor response is defined as a 25-49% reduction in the sum of the products of the longest perpendicular diameters of one or more measurable lesions, no increase in size of any lesions and no new lesions; stable disease is any change in tumor measurements not represented by the criteria for response or progressive disease, which is defined as an increase of 25% or more in the sum of the products of the longest perpendicular diameters of any measurable indicator lesions, compared to the smallest previous measurement or appearance of a new lesion. Because copper deficiency is not a cytotoxic treatment modality, the patients who provide information about the efficacy of TM for long-term therapy, in this population of patients with advanced cancer, are primarily those who remained within the target Cp window of (20±10)% of baseline for over 90 days, without disease progression
Extent of disease was evaluated at entry, at the point of achievement of copper deficiency, defined as Cp at or below 20% of baseline, and every 10-12 weeks thereafter. Computer-assisted tomography or magnetic resonance imaging were used as appropriate for conventional measurement of disease at all known sites and for evaluation of any potential new sites of disease. Angiogenesis-sensitive ultrasound with 3-dimensional Doppler analyses was employed in select cases, as adjunct to conventional imaging, to evaluate the blood flow to the tumors at different time points.
Blood flow was measured by ultrasound in select patients with accessible lesions, at the time they became copper deficient, and at variable intervals of 8-16 weeks thereafter. 3D scanning was performed on a GE Logiq 700 ultrasound system, with the 739L, 7.5 MHz linear array scanhead. The scanning and vascularity quantification techniques were as previously described (Carson et al., 1998; LeCarpentier et al., 1999).

copper metabolism = assay: Open label study of TM for initial treatment of Wilson's disease patients; assay type: in vivo, human
Excerpt: The inventors have carried out an open label study of the use of TM for initial treatment of neurologically presenting Wilson's disease patients for the past several years. The inventors have developed both a spectrophotometric and bioassay for the activity of the drug, to evaluate stability, and assure potency of the drug being administered (Brewer et al., 1991a; Brewer et al., 1994b). The drug slowly loses potency when exposed to air.
The inventors have now treated a total of 51 Wilson's disease patients with TM, all of whom presented with neurological or psychiatric disease, in an open label study. These patients were all diagnosed by standard criteria. […] Some of them were treated briefly with other agents prior to this trial. Two patients had psychiatric but not neurological symptoms.
With three exceptions in the earliest part of the study, all patients received a dose of 20 mg tid with meals, or qid with three meals and a snack. Thus, the only difference between a patient receiving 120 mg and 140 mg total dose is that the former was receiving 20 mg tid, or 60 mg, with meals, and the latter was receiving 20 mg qid, or 80 mg with meals plus a snack. The rest of the total daily dose was divided up into three equal doses and given between meals.
TM impacts quickly and favorably on copper metabolism, reducing the potentially toxic copper of the blood and theoretically, the rest of the body. The primary clinical objective is to gain control over copper toxicity while not allowing clinical worsening. In other words, the prime objective is to protect all neurological function that is present at the time therapy is started. This was evaluated weekly by quantitative neurological and speech exams. Methodology and the neurology rating scale system have been published (Young et al., 1986). During the weeks of TM administration, during which copper metabolism is being controlled, neurological function as evaluated by quantitative neurological exam, is protected.

[1] = Target Cp >90 days, + = on therapy
[2] = among the seven anemia patients

tetrathiomolybdate [TM] was tested, and the “duration of stable disease, patient with previously untreated metastatic breast cancer” value (metastatic solid tumors; TM alone) was “over 6 months”, the “No. of Patients: Disease progression” value (metastatic solid tumors; Target Cp <90 days) was 7 and the “No. of Patients: Stable disease with partial regression of lung lesions” value (metastatic solid tumors; Target Cp <90 days) was 1. The “Duration of Cu Deficiency: Stable disease with partial regression of lung lesions” value (metastatic solid tumors; Target Cp <90 days, + = on therapy) was 49+ days, the “No. of Patients: Disease progression at one site, stable elsewhere” value (metastatic solid tumors; Target Cp >90 days) was 1/6 and the “No. of Patients: Stable disease” value (metastatic solid tumors; Target Cp >90 days) was 4/6. The “No. of Patients: Stable disease with partial regression of lung lesions” value (metastatic solid tumors; Target Cp >90 days) was 1/6, the “Duration of Cu Deficiency: Stable disease, individual patients” value (metastatic solid tumors; Target Cp >90 days, * = patient discontinued therapy, + = on therapy) was 159 days and 329 days and 351 days and 413 days and the “Duration of Cu Deficiency (Average): Stable disease” value (metastatic solid tumors; [1]) was 313 days. The “Duration of Cu Deficiency: Disease progression at one site, stable elsewhere” value (metastatic solid tumors; [1]) was 120+ days, the “Duration of Cu Deficiency: Stable disease with partial regression of lung lesions” value (metastatic solid tumors; [1]) was 120+ days and the “disease status, patient with metastatic chondrosarcoma” value (metastatic solid tumors; long-term therapy) was “stable disease after 12 months of copper deficiency”. The “lung lesions in two patients with stable disease” value (metastatic solid tumors; observation periods at target Cp of 120 and 49 days) was “complete disappearance of some lung lesions and decrease in size of other lung lesions”, the “patients with stable disease” value (metastatic solid tumors; patients copper deficient at the target range for at least 90 days) was 5 out of 6 and 5/6 and the “disease progression after discontinuation of TM therapy” value (metastatic solid tumors; patients removed from protocol) was “much more rapid rates of progression of disease”. The “decrease in blood flow to tumor mass by 3D-ultrasound” value (metastatic solid tumors; rib metastasis from renal cell carcinoma, approximately 8 weeks after reaching target copper deficiency) was 4.4 fold, the “cases of reversible anemia” value (copper metabolism; 45 patients treated eight weeks with TM as initial therapy) was 11.1% and the “patients with reduction in platelet count” value (copper metabolism; [2]) was “Three”. The “patients with reduction in white blood cell count” value (copper metabolism; [2]) was “four”, the patients with overtreatment (copper metabolism; dose of 180 mg/day or over) was 6 of 37 and the patients with overtreatment (copper metabolism; dose of 150 or lower) was 1 of 13. The “time to close the plasma copper-molybdenum gap (free copper reduced to zero)” value (copper metabolism; first patient, tid with meals 7 days, then also tid between meals) was 16 days, the “patients with elevation of transaminase values (serum AST and ALT)” value (copper metabolism; human, in vivo) was “four” and the “patients with reversible anemia/bone marrow depression” value (copper metabolism; human, in vivo) was “seven”. For the same substance, the “quantitative speech exam scores” value (copper metabolism; initial 8 weeks of TM therapy) was “No patient shows significant (more than 2.0 units) reduction in scores”, the “TCA soluble fraction of plasma copper” value (copper metabolism; late stages of TM therapy, starting value 27) was 15 µg/dL and the “fall in hemoglobin, average” value (copper metabolism; patients with anemia) was 3.4 g %. For the same substance, the “patients with neurological worsening (change of more than 5 units)” value (copper metabolism; weeks of TM administration, quantitative neurological exam) was 4 % of the sample.
